Results published in patent US10966978B2, “Dose and regimen for HDM2-p53 interaction inhibitors” (Novartis AG, priority 2016, dated 2021).
Read-outs that look alike come from different tables or passages of the source.

System: patients with advanced TP53 wild-type (WT) leukemias

Compound: COc1ncc(-c2nc3c(n2C(C)C)[C@H](c2ccc(Cl)cc2)N(c2cc(Cl)cn(C)c2=O)C3=O)c(OC)n1 [HDM201, (S)-5-(5-Chloro-1-methyl-2-oxo-1,2-dihydro-pyridin-3-yl)-6-(4-chloro-phenyl)-2-(2,4-dimethoxy-pyrimidin-5-yl)-1-isopropyl-5,6-dihydro-1H-pyrrolo[3,4-d]imidazol-4-one]
- AE: Stomatitis (Regimen 1B N = 6, All Grades): 0 n (%)
- AE: Subarachnoid Haemorrhage (Regimen 1B N = 6, All Grades): 0 n (%)
- AE: Thrombocytopenia/Platelet Count Decreased (Regimen 1B N = 6, All Grades): 3 (50.0) n (%)
- AE: Total (Regimen 1B N = 6, All Grades): 5 (83.3) n (%)
- AE: Tumour Lysis Syndrome (Regimen 1B N = 6, All Grades): 0 n (%)
- AE: Vomiting (Regimen 1B N = 6, All Grades): 0 n (%)
- AE: Weight Decreased (Regimen 1B N = 6, All Grades): 0 n (%)
- AE: White Blood Cell Count Decreased (Regimen 1B N = 6, All Grades): 0 n (%)
- AE: Abdominal Discomfort (Regimen 1B N = 6, Grade 3/4): 0 n (%)
- AE: Abdominal Pain (Regimen 1B N = 6, Grade 3/4): 0 n (%)
- AE: Abdominal Pain Upper (Regimen 1B N = 6, Grade 3/4): 0 n (%)
- AE: Acute Kidney Injury (Regimen 1B N = 6, Grade 3/4): 1 (16.7) n (%)
- AE: Amylase Increased (Regimen 1B N = 6, Grade 3/4): 0 n (%)
- AE: Anaemia (Regimen 1B N = 6, Grade 3/4): 2 (33.3) n (%)
- AE: Arthralgia (Regimen 1B N = 6, Grade 3/4): 0 n (%)
- AE: Asthenia (Regimen 1B N = 6, Grade 3/4): 0 n (%)
- AE: Atrial Fibrillation (Regimen 1B N = 6, Grade 3/4): 0 n (%)
- AE: Atypical Pneumonia (Regimen 1B N = 6, Grade 3/4): 0 n (%)
- AE: Balanitis Candida (Regimen 1B N = 6, Grade 3/4): 0 n (%)
- AE: Blood Alkaline Phosphatase Increased (Regimen 1B N = 6, Grade 3/4): 0 n (%)
- AE: Blood Bilirubin Increased (Regimen 1B N = 6, Grade 3/4): 0 n (%)
- AE: Blood Creatinine Increased (Regimen 1B N = 6, Grade 3/4): 0 n (%)
- AE: Blood Phosphorus Increased (Regimen 1B N = 6, Grade 3/4): 0 n (%)
- AE: Blood Uric Acid Increased (Regimen 1B N = 6, Grade 3/4): 0 n (%)
- AE: Bone Marrow Failure (Regimen 1B N = 6, Grade 3/4): 0 n (%)
- AE: C-Reactive Protein Increased (Regimen 1B N = 6, Grade 3/4): 0 n (%)
- AE: Cardiac Failure (Regimen 1B N = 6, Grade 3/4): 0 n (%)
- AE: Cellulitis (Regimen 1B N = 6, Grade 3/4): 1 (16.7) n (%)
- AE: Chronic Graft Versus Host Disease (Regimen 1B N = 6, Grade 3/4): 0 n (%)
- AE: Conjunctival Haemorrhage (Regimen 1B N = 6, Grade 3/4): 0 n (%)
- AE: Constipation (Regimen 1B N = 6, Grade 3/4): 0 n (%)
- AE: Cough (Regimen 1B N = 6, Grade 3/4): 0 n (%)
- AE: Cystitis Viral (Regimen 1B N = 6, Grade 3/4): 0 n (%)
- AE: Cytomegalovirus Infection (Regimen 1B N = 6, Grade 3/4): 0 n (%)
- AE: Decreased Appetite (Regimen 1B N = 6, Grade 3/4): 0 n (%)
- AE: Diarrhoea (Regimen 1B N = 6, Grade 3/4): 0 n (%)
- AE: Dyspepsia (Regimen 1B N = 6, Grade 3/4): 0 n (%)
- AE: Dyspnoea (Regimen 1B N = 6, Grade 3/4): 0 n (%)
- AE: Epistaxis (Regimen 1B N = 6, Grade 3/4): 0 n (%)
- AE: Fatigue (Regimen 1B N = 6, Grade 3/4): 0 n (%)
- AE: Febrile Neutropenia (Regimen 1B N = 6, Grade 3/4): 2 (33.3) n (%)
- AE: Gamma-Glutamyltransferase Increased (Regimen 1B N = 6, Grade 3/4): 0 n (%)
- AE: General Physical Health Deterioration (Regimen 1B N = 6, Grade 3/4): 0 n (%)
- AE: Gingival Bleeding (Regimen 1B N = 6, Grade 3/4): 0 n (%)
- AE: Graft Versus Host Disease (Regimen 1B N = 6, Grade 3/4): 0 n (%)
- AE: Haemoglobin Decreased (Regimen 1B N = 6, Grade 3/4): 0 n (%)
- AE: Headache (Regimen 1B N = 6, Grade 3/4): 0 n (%)
- AE: Hyperbilirubinaemia (Regimen 1B N = 6, Grade 3/4): 0 n (%)
- AE: Hyperglycaemia (Regimen 1B N = 6, Grade 3/4): 0 n (%)
- AE: Hyperkalaemia (Regimen 1B N = 6, Grade 3/4): 1 (16.7) n (%)
- AE: Hyperphosphataemia (Regimen 1B N = 6, Grade 3/4): 0 n (%)
- AE: Hyperuricaemia (Regimen 1B N = 6, Grade 3/4): 0 n (%)
- AE: Hypoalbuminaemia (Regimen 1B N = 6, Grade 3/4): 0 n (%)
- AE: Hypocalcaemia (Regimen 1B N = 6, Grade 3/4): 0 n (%)
- AE: Hypokalaemia (Regimen 1B N = 6, Grade 3/4): 0 n (%)
- AE: Hypomagnesaemia (Regimen 1B N = 6, Grade 3/4): 0 n (%)
- AE: Hyponatraemia (Regimen 1B N = 6, Grade 3/4): 0 n (%)
- AE: Hypophosphataemia (Regimen 1B N = 6, Grade 3/4): 0 n (%)
- AE: Hypotension (Regimen 1B N = 6, Grade 3/4): 0 n (%)
- AE: Infection (Regimen 1B N = 6, Grade 3/4): 0 n (%)
- AE: Infective Glossitis (Regimen 1B N = 6, Grade 3/4): 0 n (%)
- AE: Iron Overload (Regimen 1B N = 6, Grade 3/4): 0 n (%)
- AE: Leukopenia (Regimen 1B N = 6, Grade 3/4): 0 n (%)
- AE: Lip Oedema (Regimen 1B N = 6, Grade 3/4): 0 n (%)
- AE: Lipase Increased (Regimen 1B N = 6, Grade 3/4): 0 n (%)
- AE: Macular Oedema (Regimen 1B N = 6, Grade 3/4): 1 (16.7) n (%)
- AE: Malaise (Regimen 1B N = 6, Grade 3/4): 0 n (%)
- AE: Mouth Haemorrhage (Regimen 1B N = 6, Grade 3/4): 0 n (%)
- AE: Nausea (Regimen 1B N = 6, Grade 3/4): 0 n (%)
- AE: Neutropenia/Neutrophil Count Decreased (Regimen 1B N = 6, Grade 3/4): 1 (16.7) n (%)
- AE: Oedema (Regimen 1B N = 6, Grade 3/4): 0 n (%)
- AE: Oedema Peripheral (Regimen 1B N = 6, Grade 3/4): 0 n (%)
- AE: Oral Disorder (Regimen 1B N = 6, Grade 3/4): 0 n (%)
- AE: Pain In Extremity (Regimen 1B N = 6, Grade 3/4): 0 n (%)
- AE: Pancytopenia (Regimen 1B N = 6, Grade 3/4): 1 (16.7) n (%)
- AE: Pneumonia (Regimen 1B N = 6, Grade 3/4): 0 n (%)
- AE: Pollakiuria (Regimen 1B N = 6, Grade 3/4): 0 n (%)
- AE: Pyrexia (Regimen 1B N = 6, Grade 3/4): 0 n (%)
- AE: Rash (Regimen 1B N = 6, Grade 3/4): 0 n (%)
- AE: Rash Erythematous (Regimen 1B N = 6, Grade 3/4): 0 n (%)
- AE: Rash Papular (Regimen 1B N = 6, Grade 3/4): 0 n (%)
- AE: Rectal Haemorrhage (Regimen 1B N = 6, Grade 3/4): 0 n (%)
- AE: Renal Failure (Regimen 1B N = 6, Grade 3/4): 0 n (%)
- AE: Skin Exfoliation (Regimen 1B N = 6, Grade 3/4): 0 n (%)
- AE: Stomatitis (Regimen 1B N = 6, Grade 3/4): 0 n (%)
- AE: Subarachnoid Haemorrhage (Regimen 1B N = 6, Grade 3/4): 0 n (%)
- AE: Thrombocytopenia/Platelet Count Decreased (Regimen 1B N = 6, Grade 3/4): 3 (50.0) n (%)
- AE: Total (Regimen 1B N = 6, Grade 3/4): 5 (83.3) n (%)
- AE: Tumour Lysis Syndrome (Regimen 1B N = 6, Grade 3/4): 0 n (%)
- AE: Vomiting (Regimen 1B N = 6, Grade 3/4): 0 n (%)
- AE: Weight Decreased (Regimen 1B N = 6, Grade 3/4): 0 n (%)
- AE: White Blood Cell Count Decreased (Regimen 1B N = 6, Grade 3/4): 0 n (%)
- AE: Abdominal Discomfort (Regimen 2A N = 7, All Grades): 0 n (%)
- AE: Abdominal Pain (Regimen 2A N = 7, All Grades): 0 n (%)
- AE: Abdominal Pain Upper (Regimen 2A N = 7, All Grades): 0 n (%)
- AE: Acute Kidney Injury (Regimen 2A N = 7, All Grades): 1 (14.3) n (%)
- AE: Amylase Increased (Regimen 2A N = 7, All Grades): 0 n (%)
- AE: Anaemia (Regimen 2A N = 7, All Grades): 3 (42.9) n (%)
- AE: Arthralgia (Regimen 2A N = 7, All Grades): 0 n (%)
- AE: Asthenia (Regimen 2A N = 7, All Grades): 0 n (%)
- AE: Atrial Fibrillation (Regimen 2A N = 7, All Grades): 0 n (%)
- AE: Atypical Pneumonia (Regimen 2A N = 7, All Grades): 0 n (%)
- AE: Balanitis Candida (Regimen 2A N = 7, All Grades): 0 n (%)
- AE: Blood Alkaline Phosphatase Increased (Regimen 2A N = 7, All Grades): 0 n (%)
- AE: Blood Bilirubin Increased (Regimen 2A N = 7, All Grades): 0 n (%)
